Read-outs that look alike come from different tables or passages of the source.
Tests used:
C57BL/6 mice [1] = test: Amphetamine-induced hyperlocomotion (AIH); assay type: in vivo, mouse; conditions: chronic i.p.; Cpd-60 45 mg/kg, SAHA 25 mg/kg; vs vehicle; amphetamine 3.5 mg/kg
Description: (§1) Compounds were administered between 9 am and 1 pm for 7 days prior to the start of behavioral testing, and after completion of each daily session during behavioral testing. Testing was performed 18–24 hr after the previous treatment to avoid transient effects. Amphetamine-induced hyperlocomotion (AIH) was performed as previously described on days 7–9 of treatment with activity measured before and after amphetamine challenge (AccuScan Instruments, Inc.). Forced-swim test (FST) behavior was performed as previously described on day 10 of treatment and total time spent immobile during a 6 min session was scored automatically (Ethovision; Noldus). Treatment effects were analyzed by one way analysis of variance (ANOVA) with post hoc analysis using Least Squared Differences test (SPSS v18.0 IBM).

[2] = test system: transcripts in PFC, NAc and HIP; test: Whole genome transcript profiling of brain regions (microarray); assay type: in vivo, mouse
Description: Frozen mouse brains (n = 6/treatment group) were rapidly dissected at 4°C to isolate medial prefrontal cortex (PFC), nucleus accumbens (NAc) and hippocampus (HIP) for mRNA extraction. Whole genome transcript profiling was performed using the Illumina MouseWG-6 Expression BeadChip with subsequent validation by quantitative real-time PCR (qPCR) and is available online at the NCBI Gene Expression Omnibus repository (GSE47452).
Frozen mouse brains (n = 6/ treatment group) were rapidly dissected at 4°C, isolating medial prefrontal cortex, nucleus accumbens and hippocampus. […] For microarray experiments on Illumina MouseWG-6 BeadChips, RNA samples were pooled from two biological replicates such that the total number of samples was 27 (3 treatment groups x 3 brain regions x 3 RNA pools representing two mice per pool). All microarray analysis and gene set analysis (GSA) was performed using GeneSpring software (v.11.5.1) with raw signals adjusted using quantile normalization and baseline transformation with the median signal in all samples set to zero. Data were included in subsequent analyses if the normalized signal, thresholded at 0.8, was ‘present’ for 3 of 3 replicates for like treatment and tissue groups. […] Primer sequences for qPCR validation were designed using NCBI PRIMER-BLAST (Table S2).

C57BL/6 mice [3] = test: Forced-swim test (FST); assay type: in vivo, mouse
Description: as §1

[4] = test system: H4K12 acetylation in HEK293 cells; test: H4K12 acetylation western blot, constant exposure and washout; assay type: cell-based, human
Description: Frozen mouse brains (n = 6/treatment group) were rapidly dissected at 4°C to isolate frontal cortex (including PFC), ventral striatum (including NAc), and HIP for protein extraction. […] Solutions for protein extraction were supplemented with 5 mM sodium butyrate to suppress residual HDAC activity. […] Densitometric quantification was performed using Image J software (NIH) and statistical comparison to vehicle-treated controls by two-tailed t-test.
Protein was extracted by douncing in suspension buffer: 0.1 M NaCl, 0.01 M TrisCl (ph7.6), 0.001 M EDTA (pH 8.0), then immediately diluted with an equal volume of 2x SDS-gel loading buffer: 100 mM TrisCl (ph 6.8), 4% SDS, 20% glycerol, 200 mM DTT. […] Media was aspirated and cells collected for Western blotting using 40 μL buffers as detailed above for mouse brain. Solutions for protein extraction were supplemented with 5 mM sodium butyrate to suppress residual HDAC activity. Samples were denatured at 95°C for 5 min, passaged 3x through a 25 gauge needle and centrifuged at 10,000g for 10 min at room temperature and protein quantification performed using a BCA protein assay kit #23225 (Pierce). […] Chemiluminescent detection of immunoreactivity was performed using SuperSignal West Dura Substrate #34076 (Pierce) with subsequent densitometric quantification using Image J software (NIH) and statistical comparison to vehicle-treated controls by two-tailed t-test.

[5] = Mouse brain pharmacokinetics; assay type: in vivo
Description: Plasma, brain samples, and dose formulations, were analyzed as previously described using high performance liquid chromatography/mass spectrometry. Data acquisition and control system were created using Analyst 1.4 software (ABI Inc, Canada).

[6] = test system: transcripts in whole brain; conditions: chronic lithium, ref McQuillin et al, 2007; cited from earlier work
C57BL/6 mice [7] = conditions: 85 mg/kg i.p.; cited from earlier work

O=C(CCCCCCC(=O)Nc1ccccc1)NO [SAHA, suberoylanilide hydroxamic acid]
reduction of amphetamine-induced hyperlocomotion (C57BL/6 mice [1]): no effect
overlap with the 121 transcripts modulated by lithium ([2]; Gene Set Enrichment Analysis): no significant overlap
transcripts altered across the three regions ([2]; PFC, NAc, HIP compiled, ≥[…] vs vehicle): 288
transcripts up- or down-regulated, summed across the three brain regions ([2]; Tukey's HSD p<0.05 vs vehicle): 1530
downregulated transcripts HIP (total) ([2]; ≥[…], post hoc p<0.05): 148
downregulated transcripts NAc (total) ([2]; ≥[…], post hoc p<0.05): 16
downregulated transcripts PFC (total) ([2]; ≥[…], post hoc p<0.05): 5
upregulated transcripts HIP (total) ([2]; ≥[…], post hoc p<0.05): 104
upregulated transcripts NAc (total) ([2]; ≥[…], post hoc p<0.05): 5
upregulated transcripts PFC (total) ([2]; ≥[…], post hoc p<0.05): 7
reduction in immobility time (C57BL/6 mice [3]; chronic i.p., day 10, Cpd-60 45 mg/kg, SAHA 25 mg/kg, vs vehicle): did not influence mouse behavior in either paradigm
H4K12ac levels after washout ([4]; HEK293, 20 µM 24 hr, then 6 hr after media change): only Cpd-60-treated cells showed persistent increases in H4K12ac
H4K12ac levels, constant exposure ([4]; HEK293, 20 µM for 24 hr): elevated H4K12ac levels
half-life ([5]; C57BL/6, mouse, brain, ip, read-out: brain T1/2 (converted)): 26.4 min
time until cleared from the brain ([5]; systemic treatment): ≤ 2 h

CNCCCN1c2ccccc2CCc2ccccc21 [desipramine]
reduction in immobility time (C57BL/6 mice [3]; 15 mg/kg i.p., n = 16/group, data not shown): 55%

[Li] [lithium]
Agxt2l1 fold change [6]: 2.73 fold change
Igfbp5 fold change [6]: -1.56 fold change
Mef2c fold change [6]: -1.22 fold change
Mfsd2 fold change [6]: 2.65 fold change
Nrxn1 fold change [6]: -1.18 fold change
Per2 fold change [6]: 2.47 fold change
Qdpr fold change [6]: -1.46 fold change
Sgk1 fold change [6]: 2.85 fold change
Sult1a1 fold change [6]: 6.28 fold change
Tsc22d3 fold change [6]: 1.95 fold change
Usp54 fold change [6]: 1.57 fold change
reduction in immobility time (C57BL/6 mice [7]): 48%

Reference: publication PMC3743770, “A Selective HDAC 1/2 Inhibitor Modulates Chromatin and Gene Expression in Brain and Alters Mouse Behavior in Two Mood-Related Tests” (PLoS ONE, 2013)
